This note sets out measurements from PMC10675071, “Identification of Crocetin as a Dual Agonist of GPR40 and GPR120 Responsible for the Antidiabetic Effect of Saffron” (Nutrients, 2023).

What all share (assay type): cell-based
In assay [1] the target is T1, GPR40 (Homo sapiens, UniProt O14842).
T1 construct: gene FFAR1; plasmid of untold source and species, transiently cotransfected with SRE-Luc or CRE-Luc in CHO-K1 cells
Put plainly: SRE-luciferase (Gq) reporter assay, CHO cells. Conditions: 24 h, 37 °C. (Reporter assays use an easily measured gene product as a stand-in for the process of interest.)

Assay [2] deals with T1, GPR40. Put plainly: SRE-luciferase (Gq) reporter assay, CHO cells.
Assay [3] deals with T1, GPR40. The assay is described as follows: SRE-luciferase (Gq) reporter assay, CHO cells, dose-response curve. Conditions: agonist.

The Emax is the maximal effect, on the per cent scale that the assay sets. What is called EC50 is the midpoint of the concentration-response curve. A higher EC50 goes with a need for much substance.

T1 sequence (O14842 whole entry): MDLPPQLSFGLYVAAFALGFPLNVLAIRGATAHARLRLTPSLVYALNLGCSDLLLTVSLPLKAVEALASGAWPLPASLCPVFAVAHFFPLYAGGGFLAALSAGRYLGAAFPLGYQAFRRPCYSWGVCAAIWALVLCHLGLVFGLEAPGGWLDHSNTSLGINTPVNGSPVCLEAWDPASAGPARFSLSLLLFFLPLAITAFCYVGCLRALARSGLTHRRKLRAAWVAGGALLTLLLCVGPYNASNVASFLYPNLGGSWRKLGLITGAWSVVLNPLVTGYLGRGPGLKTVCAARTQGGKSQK

`CC(/C=C/C=C(\C)C(=O)O[C@@H]1O[C@H](CO[C@@H]2O[C@H](CO)[C@@H](O)[C@H](O)[C@H]2O)[C@@H](O)[C@H](O)[C@H]1O)=C\C=C\C=C(C)\C=C\C=C(/C)C(=O)O[C@@H]1O[C@H](CO[C@@H]2O[C@H](CO)[C@@H](O)[C@H](O)[C@H]2O)[C@@H](O)[C@H](O)[C@H]1O` [crocin] yielded an Emax on GPR40 [1] of 6.00%.

For `CC(/C=C/C=C(\C)C(=O)O)=C\C=C\C=C(C)\C=C\C=C(/C)C(=O)O` [crocetin], a half-maximal effect on GPR40 [2] (EC50) was put at 2910 ± 320 nM.

As to `CCCCC/C=C\C/C=C\CCCCCCCC(=O)O` [linoleic acid], the “SRE-luciferase (Gq) reporter assay, CHO cells, dose-response curve” value at GPR40 [3] is reported as “increasing crocetin concentrations on dose−response curves of LA”.
